According to patent US12448389B2, “BRM targeting compounds and associated methods of use” (Prelude Therapeutics Incorporated, priority 2020, dated 2025):

Legend:
SMARCA2-HiBiT = molecular target: T1, SMARCA2-HiBiT (Homo sapiens, UniProt P51531); assay: SMARCA2 HiBiT degradation assay in HeLa cells; format: cell-based; conditions: 18 hours incubation; for DC50: read-out: HeLa_HiBit-SM2 DC50; for Dmax: HeLa, read-out: HeLa-HiBit-SM2 Dmax (%)
T1 construct: SMARCA2-HiBiT knock-in Hela monoclonal cell (CS302366); host or cells: HeLa monoclonal knock-in line (CRISPR HiBiT knock-in at the endogenous locus, heterozygous)
In short: (§1)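 HeLa monoclonal lines with heterozygous HiBiT knock-in were seeded at 2500 cells/well in EMEM with 10% FBS and treated with compound for 18 h at 37 °C. Remaining tagged protein was measured by Nano-Glo HiBiT lytic luminescence after 30–60 min at RT, and values came from curve fitting.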

SMARCA4-HiBiT = molecular target: T2, SMARCA4-HiBiT (Homo sapiens, UniProt P51532); assay: SMARCA4 HiBiT degradation assay in HeLa cells; format: cell-based; conditions: 18 hours incubation; for DC50: read-out: HeLa-HiBit-SM4 DC50; for Dmax: HeLa, read-out: HeLa-HiBit-SM4 Dmax (%)
T2 construct: SMARCA4-HiBiT knock-in Hela monoclonal cell (CS3023226); host or cells: HeLa monoclonal knock-in line (CRISPR HiBiT knock-in at the endogenous locus, heterozygous)
In short: as §1

T1 sequence (P51531 whole entry): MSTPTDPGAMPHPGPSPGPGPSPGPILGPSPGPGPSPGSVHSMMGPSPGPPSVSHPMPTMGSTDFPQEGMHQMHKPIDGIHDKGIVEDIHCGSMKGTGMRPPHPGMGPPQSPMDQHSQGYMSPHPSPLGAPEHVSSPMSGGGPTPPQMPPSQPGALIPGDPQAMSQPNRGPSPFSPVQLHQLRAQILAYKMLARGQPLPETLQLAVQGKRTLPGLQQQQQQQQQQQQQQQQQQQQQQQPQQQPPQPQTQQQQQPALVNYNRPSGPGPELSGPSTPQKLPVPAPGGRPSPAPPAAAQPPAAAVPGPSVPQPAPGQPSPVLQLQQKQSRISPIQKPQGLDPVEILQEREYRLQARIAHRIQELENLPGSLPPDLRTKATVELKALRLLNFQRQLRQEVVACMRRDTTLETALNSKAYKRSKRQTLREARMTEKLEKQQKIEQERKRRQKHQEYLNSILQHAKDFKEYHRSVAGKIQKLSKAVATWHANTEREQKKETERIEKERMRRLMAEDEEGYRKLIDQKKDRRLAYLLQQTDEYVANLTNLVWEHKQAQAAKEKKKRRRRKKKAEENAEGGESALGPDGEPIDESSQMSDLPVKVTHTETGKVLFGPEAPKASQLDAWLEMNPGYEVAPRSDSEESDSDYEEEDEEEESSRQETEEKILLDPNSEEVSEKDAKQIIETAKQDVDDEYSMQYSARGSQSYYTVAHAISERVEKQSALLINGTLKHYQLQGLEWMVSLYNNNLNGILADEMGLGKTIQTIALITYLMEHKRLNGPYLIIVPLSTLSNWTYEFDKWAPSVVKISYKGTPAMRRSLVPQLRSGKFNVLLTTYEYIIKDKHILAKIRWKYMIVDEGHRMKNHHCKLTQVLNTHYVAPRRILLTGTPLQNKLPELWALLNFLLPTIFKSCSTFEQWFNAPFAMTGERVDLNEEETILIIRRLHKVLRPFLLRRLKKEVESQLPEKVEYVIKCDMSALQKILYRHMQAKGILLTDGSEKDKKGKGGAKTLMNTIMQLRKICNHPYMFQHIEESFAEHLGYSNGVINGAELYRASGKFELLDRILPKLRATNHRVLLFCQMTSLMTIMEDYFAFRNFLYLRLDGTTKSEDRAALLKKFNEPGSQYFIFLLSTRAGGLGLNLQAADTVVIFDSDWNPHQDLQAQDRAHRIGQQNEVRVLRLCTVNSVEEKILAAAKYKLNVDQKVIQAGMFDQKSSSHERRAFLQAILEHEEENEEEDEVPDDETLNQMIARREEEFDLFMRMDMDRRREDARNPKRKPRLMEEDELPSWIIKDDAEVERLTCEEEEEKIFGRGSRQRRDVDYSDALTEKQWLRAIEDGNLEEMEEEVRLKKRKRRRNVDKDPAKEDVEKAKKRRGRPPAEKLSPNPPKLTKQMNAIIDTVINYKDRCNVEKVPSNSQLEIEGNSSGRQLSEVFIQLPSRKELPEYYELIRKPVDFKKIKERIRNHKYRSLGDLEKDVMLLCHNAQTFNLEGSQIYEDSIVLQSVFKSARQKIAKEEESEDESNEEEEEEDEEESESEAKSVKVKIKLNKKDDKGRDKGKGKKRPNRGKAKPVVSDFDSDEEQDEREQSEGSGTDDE
T2 sequence (P51532 whole entry): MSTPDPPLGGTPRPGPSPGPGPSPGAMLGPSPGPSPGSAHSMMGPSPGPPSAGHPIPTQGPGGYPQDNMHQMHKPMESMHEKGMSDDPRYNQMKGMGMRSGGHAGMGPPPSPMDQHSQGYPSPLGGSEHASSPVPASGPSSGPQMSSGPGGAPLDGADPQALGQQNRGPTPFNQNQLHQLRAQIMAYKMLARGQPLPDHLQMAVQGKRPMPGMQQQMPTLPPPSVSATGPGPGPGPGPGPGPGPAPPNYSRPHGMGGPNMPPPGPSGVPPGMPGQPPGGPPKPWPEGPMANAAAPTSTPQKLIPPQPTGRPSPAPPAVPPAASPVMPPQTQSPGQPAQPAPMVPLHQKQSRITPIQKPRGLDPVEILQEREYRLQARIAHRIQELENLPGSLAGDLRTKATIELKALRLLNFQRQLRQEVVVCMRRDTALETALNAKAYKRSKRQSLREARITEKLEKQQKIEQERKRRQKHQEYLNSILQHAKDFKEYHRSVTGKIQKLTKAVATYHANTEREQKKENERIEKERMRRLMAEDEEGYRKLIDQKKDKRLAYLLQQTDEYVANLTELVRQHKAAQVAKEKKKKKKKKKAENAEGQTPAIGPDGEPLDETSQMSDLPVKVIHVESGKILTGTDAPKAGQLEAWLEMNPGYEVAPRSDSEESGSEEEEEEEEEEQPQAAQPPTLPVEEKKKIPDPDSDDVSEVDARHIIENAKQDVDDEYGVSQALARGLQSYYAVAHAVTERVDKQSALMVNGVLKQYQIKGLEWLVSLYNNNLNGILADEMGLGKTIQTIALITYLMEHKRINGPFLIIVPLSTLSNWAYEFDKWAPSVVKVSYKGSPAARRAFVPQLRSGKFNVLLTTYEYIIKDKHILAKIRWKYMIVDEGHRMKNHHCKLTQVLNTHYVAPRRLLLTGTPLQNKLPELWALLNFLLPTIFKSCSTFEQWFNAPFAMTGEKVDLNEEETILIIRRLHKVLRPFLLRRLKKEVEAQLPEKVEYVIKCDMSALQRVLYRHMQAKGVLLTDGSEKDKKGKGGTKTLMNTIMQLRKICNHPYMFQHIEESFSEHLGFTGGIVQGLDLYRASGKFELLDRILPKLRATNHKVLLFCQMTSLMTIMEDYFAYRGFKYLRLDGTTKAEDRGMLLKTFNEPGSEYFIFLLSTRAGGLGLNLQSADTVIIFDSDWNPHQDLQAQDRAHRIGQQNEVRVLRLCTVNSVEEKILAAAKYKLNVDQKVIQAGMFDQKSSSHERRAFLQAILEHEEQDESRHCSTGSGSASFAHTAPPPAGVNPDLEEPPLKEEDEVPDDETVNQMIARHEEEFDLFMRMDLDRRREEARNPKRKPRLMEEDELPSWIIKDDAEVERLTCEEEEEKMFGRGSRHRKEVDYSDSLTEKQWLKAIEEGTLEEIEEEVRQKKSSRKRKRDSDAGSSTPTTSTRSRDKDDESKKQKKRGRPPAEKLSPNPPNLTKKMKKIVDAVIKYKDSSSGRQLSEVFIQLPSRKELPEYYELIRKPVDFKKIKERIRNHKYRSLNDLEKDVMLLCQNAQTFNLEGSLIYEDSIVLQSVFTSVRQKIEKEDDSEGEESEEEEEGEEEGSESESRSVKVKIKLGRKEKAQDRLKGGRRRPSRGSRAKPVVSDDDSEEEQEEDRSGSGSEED

Row | DC50 (SMARCA2-HiBiT) [nM] | Dmax (SMARCA2-HiBiT) [%] | DC50 (SMARCA4-HiBiT) [nM] | Dmax (SMARCA4-HiBiT) [%] | Compound
1 | < 10 | > 85 | < 10 | > 85 | O=C1CCC(N2Cc3ccc(N4CC[C@H](CN5C[C@@H]6[C@H](C5)[C@H]6CN5CCN6c7cc(-c8ccccc8O)nnc7NC[C@H]6C5)[C@@H](F)C4)cc3C2=O)C(=O)N1 (stereo partly drawn) [Example 203, 3-(6-((3R,4R)-3-fluoro-4-(((1R,5S,6R)-6-(((S)-2-(2-hydroxyphenyl)-5,6,6a,7,9,10-hexahydro-8H-pyrazino[1′,2′:4,5]pyrazino[2,3-c]pyridazin-8-yl)methyl)-3-azabicyclo[3.1.0]hexan-3-yl)methyl)piperidin-1-yl)-1-oxoisoindolin-2-yl)piperidine-2,6-dione]
2 | < 10 | > 85 | < 10 | > 85 | CC1CN(CC2CCN(c3ccc4c(c3)C(=O)N(C3CCC(=O)NC3=O)C4=O)CC2)CCC1CN1CCN2c3cc(-c4ccccc4O)nnc3NC[C@H]2C1 (stereo partly drawn) [Example 161, 2-(2,6-dioxopiperidin-3-yl)-5-(4-((4-(((S)-2-(2-hydroxyphenyl)-5,6,6a,7,9,10-hexahydro-8H-pyrazino[1′,2′:4,5]pyrazino[2,3-c]pyridazin-8-yl)methyl)-3-methylpiperidin-1-yl)methyl)piperidin-1-yl)isoindoline-1,3-dione]
3 | < 10 | > 85 | < 10 | > 85 | O=C1CCC(N2Cc3cc(CCN4CCC(N5CCC(N6CCN7c8cc(-c9ccccc9O)nnc8NC[C@H]7C6)CC5)CC4)ccc3C2=O)C(=O)N1 (stereo partly drawn) [Example 62, 3-(5-(2-(4-((S)-2-(2-hydroxyphenyl)-5,6,6a,7,9,10-hexahydro-8H-pyrazino[1′,2′:4,5]pyrazino[2,3-c]pyridazin-8-yl)-[1,4′-bipiperidin]-1′-yl)ethyl)-1-oxoisoindolin-2-yl)piperidine-2,6-dione]
4 | < 10 | > 85 | < 10 | > 85 | O=C1CCC(N2Cc3cc(N4CC(CN5CCC(CN6CCN7c8cc(-c9ccccc9O)nnc8NC[C@H]7C6)CC5)C4)ccc3C2=O)C(=O)N1 (stereo partly drawn) [Example 230, 3-(5-(3-((4-(((S)-2-(2-hydroxyphenyl)-5,6,6a,7,9,10-hexahydro-8H-pyrazino[1′,2′:4,5]pyrazino[2,3-c]pyridazin-8-yl)methyl)piperidin-1-yl)methyl)azetidin-1-yl)-1-oxoisoindolin-2-yl)piperidine-2,6-dione]
5 | < 10 | 75 to 85 | 10 to 100 | 75 to 85 | O=C1CCC(N2C(=O)c3ccc(Nc4cccc(N5CCC(N6CCN7c8cc(-c9ccccc9O)nnc8NC[C@H]7C6)CC5)c4)cc3C2=O)C(=O)N1 (stereo partly drawn) [Example 244, 2-(2,6-dioxopiperidin-3-yl)-5-((3-(4-((S)-2-(2-hydroxyphenyl)-5,6,6a,7,9,10-hexahydro-8H-pyrazino[1′,2′:4,5]pyrazino[2,3-c]pyridazin-8-yl)piperidin-1-yl)phenyl)amino)isoindoline-1,3-dione]
6 | < 10 | > 85 | < 10 | 75 to 85 | CC1CN(CC2CCN(c3ccc4c(c3)C(=O)N(C3CCC(=O)NC3=O)C4)CC2)CCN1C(=O)N1CCN2c3cc(-c4ccccc4O)nnc3NC[C@H]2C1 (stereo partly drawn) [Example 104, 3-(6-(4-((4-((S)-2-(2-hydroxyphenyl)-6,6a,7,8,9,10-hexahydro-5H-pyrazino[1′,2′:4,5]pyrazino[2,3-c]pyridazine-8-carbonyl)-3-methylpiperazin-1-yl)methyl)piperidin-1-yl)-1-oxoisoindolin-2-yl)piperidine-2,6-dione]
7 | < 10 | > 85 | < 10 | > 85 | O=C1CCC(N2C(=O)c3ccc(N4CCC(CN5CCC(F)(CN6CCN7c8cc(-c9ccccc9O)nnc8NC[C@H]7C6)CC5)CC4)cc3C2=O)C(=O)N1 (stereo partly drawn) [Example 175, 2-(2,6-dioxopiperidin-3-yl)-5-[4-[[4-fluoro-4-[[(10S)-4-(2-hydroxyphenyl)-1,5,6,8,12-pentazatricyclo[8.4.0.02,7]tetradeca-2,4,6-trien-12-yl]methyl]piperidin-1-yl]methyl]piperidin-1-yl]isoindole-1,3-dione]
8 | < 10 | 75 to 85 | < 10 | 50 to 75 | O=C1CCC(N2C(=O)c3ccc(N4CCC(CN5CCCC(CN6CCN7c8cc(-c9ccccc9O)nnc8NC[C@H]7C6)C5)CC4)cc3C2=O)C(=O)N1 (stereo partly drawn) [Example 35, 2-(2,6-dioxopiperidin-3-yl)-5-(4-((3-(((S)-2-(2-hydroxyphenyl)-5,6,6a,7,9,10-hexahydro-8H-pyrazino[1′,2′:4,5]pyrazino[2,3-c]pyridazin-8-yl)methyl)piperidin-1-yl)methyl)piperidin-1-yl)isoindoline-1,3-dione]
9 | < 10 | > 85 | < 10 | 75 to 85 | O=C1CCC(N2C(=O)c3ccc(N4CCN(CC5CCC(CN6CCN7c8cc(-c9ccccc9O)nnc8NC[C@H]7C6)CC5)CC4)cc3C2=O)C(=O)N1 (stereo partly drawn) [Example 168, 2-(2,6-dioxopiperidin-3-yl)-5-(4-((4-(((S)-2-(2-hydroxyphenyl)-5,6,6a,7,9,10-hexahydro-8H-pyrazino[1′,2′:4,5]pyrazino[2,3-c]pyridazin-8-yl)methyl)cyclohexyl)methyl)piperazin-1-yl)isoindoline-1,3-dione]
10 | < 10 | > 85 | < 10 | > 85 | CC1(C)CN(CC2CCN(c3ccc4c(c3)C(=O)N(C3CCC(=O)NC3=O)C4)CC2)CCN1C(=O)N1CCN2c3cc(-c4ccccc4O)nnc3NC[C@H]2C1 (stereo partly drawn) [Example 105, 3-(6-(4-((4-((S)-2-(2-hydroxyphenyl)-6,6a,7,8,9,10-hexahydro-5H-pyrazino[1′,2′:4,5]pyrazino[2,3-c]pyridazine-8-carbonyl)-3,3-dimethylpiperazin-1-yl)methyl)piperidin-1-yl)-1-oxoisoindolin-2-yl)piperidine-2,6-dione]
11 | < 10 | > 85 | 10 to 100 | > 85 | CN(CCN1CCC(N2CCN3c4cc(-c5ccccc5O)nnc4NC[C@H]3C2)CC1)c1cccc2c1C(=O)N(C1CCC(=O)NC1=O)C2=O (stereo partly drawn) [Example 68, 2-(2,6-dioxopiperidin-3-yl)-4-((2-(4-((S)-2-(2-hydroxyphenyl)-5,6,6a,7,9,10-hexahydro-8H-pyrazino[1′,2′:4,5]pyrazino[2,3-c]pyridazin-8-yl)piperidin-1-yl)ethyl)(methyl)amino)isoindoline-1,3-dione]
12 | < 10 | 75 to 85 | < 10 | 50 to 75 | O=C1CCC(N2C(=O)c3cccc(N4CCC(CCCN5CCC6(CCC(N7CCN8c9cc(-c%10ccccc%10O)nnc9NC[C@H]8C7)CC6)CC5)CC4)c3C2=O)C(=O)N1 (stereo partly drawn) [Example 72, 2-(2,6-dioxopiperidin-3-yl)-4-(4-(3-(9-((S)-2-(2-hydroxyphenyl)-5,6,6a,7,9,10-hexahydro-8H-pyrazino[1′,2′:4,5]pyrazino[2,3-c]pyridazin-8-yl)-3-azaspiro[5.5]undecan-3-yl)propyl)piperidin-1-yl)isoindoline-1,3-dione]
13 | < 10 | > 85 | < 10 | > 85 | CC(C1CCN(c2ccc3c(c2)C(=O)N(C2CCC(=O)NC2=O)C3=O)CC1)N1CCC(CCCN2CCN3c4cc(-c5ccccc5O)nnc4NC[C@H]3C2)CC1 (stereo partly drawn) [Example 248, 2-(2,6-dioxopiperidin-3-yl)-5-(4-(1-(4-(3-((S)-2-(2-hydroxyphenyl)-5,6,6a,7,9,10-hexahydro-8H-pyrazino[1′,2′:4,5]pyrazino[2,3-c]pyridazin-8-yl)propyl)piperidin-1-yl)ethyl)piperidin-1-yl)isoindoline-1,3-dione]
14 | < 10 | > 85 | < 10 | > 85 | CCC1Nc2nnc(-c3ccccc3O)cc2N2CCN(CC3CCN(CC4CCN(c5ccc6c(c5)C(=O)N(C5CCC(=O)NC5=O)C6=O)CC4)CC3)CC12 (stereo not shown) [Example 128, 2-(2,6-dioxopiperidin-3-yl)-5-(4-((4-((6-ethyl-2-(2-hydroxyphenyl)-5,6,6a,7,9,10-hexahydro-8H-pyrazino[1′,2′:4,5]pyrazino[2,3-c]pyridazin-8-yl)methyl)piperidin-1-yl)methyl)piperidin-1-yl)isoindoline-1,3-dione]
15 | < 10 | 50 to 75 | 10 to 100 | ≤ 50 | O=C1CCC(N2Cc3cc(OCCN4CCC(CN5CCN6c7cc(-c8ccccc8O)nnc7NC[C@H]6C5)CC4)ccc3C2=O)C(=O)N1 (stereo partly drawn) [Example 207, 3-(5-(2-(4-(((S)-2-(2-hydroxyphenyl)-5,6,6a,7,9,10-hexahydro-8H-pyrazino[1′,2′:4,5]pyrazino[2,3-c]pyridazin-8-yl)methyl)piperidin-1-yl)ethoxy)-1-oxoisoindolin-2-yl)piperidine-2,6-dione]
16 | < 10 | 75 to 85 | 10 to 100 | 50 to 75 | C[C@H]1CN2c3cc(-c4ccccc4O)nnc3NC[C@H]2CN1C[C@H]1[C@@H]2CN(CC3CCN(c4ccc5c(c4)C(=O)N(C4CCC(=O)NC4=O)C5)CC3)C[C@@H]21 (stereo partly drawn) [Example 54, 3-(6-(4-(((1R,5S,6r)-6-(((6aS,9S)-2-(2-hydroxyphenyl)-9-methyl-5,6,6a,7,9,10-hexahydro-8H-pyrazino[1′,2′:4,5]pyrazino[2,3-c]pyridazin-8-yl)methyl)-3-azabicyclo[3.1.0]hexan-3-yl)methyl)piperidin-1-yl)-1-oxoisoindolin-2-yl)piperidine-2,6-dione]
